Experiment [1] deals with His6-TEV-PDGFRβ (557-1016) (Homo sapiens (Human), UniProt P09619). Put plainly: PDGFRβ HTRF Assay. In kind it is biochemical. The note with it: read-out: PDGFR HTRF IC50. In outline:
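HTRF KinEASE-TK readout (665/620 nm ratio) of TK-biotin substrate phosphorylation by His-tagged PDGFRβ kinase domain. Enzyme and inhibitor preincubated 30 min, then ATP/substrate added for 3 h at room temperature before 60 min EDTA quench/detection.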
In general terms: In TR-FRET formats the signal depends on donor and acceptor labels being close together.

The target in experiment [2] is Tb-labeled inactive PDGFRβ (Homo sapiens (Human), UniProt P09619). Nature of the experiment: PDGFRβ LanthaScreen Assay. In kind it is binding. The note with it: read-out: PDGFR Lantha IC50.
Chain of Tb-labeled inactive PDGFRβ (P09619 33-1106): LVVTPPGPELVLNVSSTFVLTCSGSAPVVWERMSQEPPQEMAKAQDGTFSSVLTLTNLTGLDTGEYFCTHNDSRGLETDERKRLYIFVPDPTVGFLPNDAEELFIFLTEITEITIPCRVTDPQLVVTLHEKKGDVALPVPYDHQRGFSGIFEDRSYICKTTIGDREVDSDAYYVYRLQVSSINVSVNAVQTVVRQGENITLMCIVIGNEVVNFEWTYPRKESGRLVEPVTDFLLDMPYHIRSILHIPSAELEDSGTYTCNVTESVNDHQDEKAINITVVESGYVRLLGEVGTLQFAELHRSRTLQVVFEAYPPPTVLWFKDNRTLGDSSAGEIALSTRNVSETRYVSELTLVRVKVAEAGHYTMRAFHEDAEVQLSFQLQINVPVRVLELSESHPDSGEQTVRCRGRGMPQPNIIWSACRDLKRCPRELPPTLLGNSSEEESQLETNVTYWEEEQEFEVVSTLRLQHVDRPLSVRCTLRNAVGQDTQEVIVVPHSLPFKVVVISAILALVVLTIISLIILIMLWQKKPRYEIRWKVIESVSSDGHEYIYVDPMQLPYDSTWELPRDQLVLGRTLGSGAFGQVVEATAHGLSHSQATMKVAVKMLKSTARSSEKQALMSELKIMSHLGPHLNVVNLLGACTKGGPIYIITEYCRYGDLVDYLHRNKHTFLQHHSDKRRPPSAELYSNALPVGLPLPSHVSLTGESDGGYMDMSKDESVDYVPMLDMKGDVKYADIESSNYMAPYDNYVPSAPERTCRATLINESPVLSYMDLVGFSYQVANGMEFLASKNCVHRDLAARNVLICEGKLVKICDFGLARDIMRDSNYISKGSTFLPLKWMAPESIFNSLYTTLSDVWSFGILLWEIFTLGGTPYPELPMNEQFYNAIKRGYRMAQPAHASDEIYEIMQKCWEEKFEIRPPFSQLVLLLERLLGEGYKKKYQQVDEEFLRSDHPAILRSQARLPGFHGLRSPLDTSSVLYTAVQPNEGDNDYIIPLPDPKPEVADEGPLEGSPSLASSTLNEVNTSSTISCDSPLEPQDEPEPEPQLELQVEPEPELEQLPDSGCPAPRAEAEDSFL
A further experiment addresses PDGFRβ (Rattus norvegicus (Rat), UniProt Q05030). Put plainly: PDGFRβ Cellular Assay (PDGFRb P-Y751 HTRF in A10 cells stimulated with PDGF-BB). Type of experiment: cell-based. The procedure, abridged:
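Phospho-Y751 PDGFRβ was measured by HTRF in lysates of A10 rat cells. Cells received compound for 3 hours before PDGF-BB stimulation (100 ng/mL working stock).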

pIC50: −log10 of the molar value. Read-outs that look alike come from different tables or passages of the source.

Chain of PDGFRβ (Q05030 32-1097): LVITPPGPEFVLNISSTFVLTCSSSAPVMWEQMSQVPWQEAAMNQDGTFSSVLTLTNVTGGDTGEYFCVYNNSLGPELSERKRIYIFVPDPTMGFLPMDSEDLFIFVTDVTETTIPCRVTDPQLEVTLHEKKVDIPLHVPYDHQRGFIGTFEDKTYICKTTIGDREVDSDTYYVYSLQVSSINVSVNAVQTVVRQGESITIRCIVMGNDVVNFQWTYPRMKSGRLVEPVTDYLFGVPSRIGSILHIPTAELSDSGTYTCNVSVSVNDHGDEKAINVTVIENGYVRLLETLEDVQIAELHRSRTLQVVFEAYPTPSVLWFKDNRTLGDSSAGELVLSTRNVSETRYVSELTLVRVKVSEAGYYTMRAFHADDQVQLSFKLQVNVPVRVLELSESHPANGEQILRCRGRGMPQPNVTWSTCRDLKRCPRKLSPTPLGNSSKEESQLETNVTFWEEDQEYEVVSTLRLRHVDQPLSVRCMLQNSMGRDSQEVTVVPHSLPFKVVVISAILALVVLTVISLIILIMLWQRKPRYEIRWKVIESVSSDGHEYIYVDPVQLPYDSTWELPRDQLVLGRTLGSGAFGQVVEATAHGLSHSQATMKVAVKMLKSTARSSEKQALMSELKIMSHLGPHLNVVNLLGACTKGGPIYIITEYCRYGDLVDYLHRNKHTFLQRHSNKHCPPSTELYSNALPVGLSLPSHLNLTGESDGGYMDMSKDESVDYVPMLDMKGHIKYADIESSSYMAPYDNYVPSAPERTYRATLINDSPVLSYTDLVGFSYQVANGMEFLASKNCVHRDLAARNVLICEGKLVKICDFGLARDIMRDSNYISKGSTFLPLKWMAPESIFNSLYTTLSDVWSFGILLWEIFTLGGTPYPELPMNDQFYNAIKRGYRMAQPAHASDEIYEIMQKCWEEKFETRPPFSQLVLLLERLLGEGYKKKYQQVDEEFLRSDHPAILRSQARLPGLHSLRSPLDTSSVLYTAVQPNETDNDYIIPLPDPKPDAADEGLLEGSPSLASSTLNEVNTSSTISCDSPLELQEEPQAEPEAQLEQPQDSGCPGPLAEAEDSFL
Chain of His6-TEV-PDGFRβ (557-1016) (P09619 557-1016): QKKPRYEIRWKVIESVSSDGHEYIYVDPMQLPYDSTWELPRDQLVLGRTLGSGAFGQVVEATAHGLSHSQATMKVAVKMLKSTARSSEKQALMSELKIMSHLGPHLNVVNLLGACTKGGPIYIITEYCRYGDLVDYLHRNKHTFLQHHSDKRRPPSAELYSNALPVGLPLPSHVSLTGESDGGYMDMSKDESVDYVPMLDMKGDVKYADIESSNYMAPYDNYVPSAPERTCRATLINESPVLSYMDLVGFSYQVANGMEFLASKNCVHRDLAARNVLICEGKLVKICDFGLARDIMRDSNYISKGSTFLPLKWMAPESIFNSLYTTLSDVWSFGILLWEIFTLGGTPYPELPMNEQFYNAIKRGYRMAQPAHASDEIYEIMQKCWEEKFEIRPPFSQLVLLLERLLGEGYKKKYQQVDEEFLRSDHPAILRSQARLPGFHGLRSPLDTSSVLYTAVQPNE

As for `Cc1ncc(NC(=O)OCCN2CCCC2(C)C)cc1NC(=O)c1cnn2cc(-c3cnn(C)c3)sc12` [Example 247, 2-(2,2-dimethylpyrrolidin-1-yl)ethyl (6-methyl-5-(2-(1-methyl-1H-pyrazol-4-yl)pyrazolo[5,1-b]thiazole-7-carboxamido)pyridin-3-yl)carbamate], the pIC50 (as a rule, the negative decadic logarithm of the IC50, by convention in mol/L) is 9.22 in experiment [1], 7.71 in experiment [2] and 7.74 at PDGFRβ (read-out: PDGFR Cellular IC50).

`Cc1ncc(C(=O)NCCN2CCCC2)cc1NC(=O)c1cnn2cc(-c3cnn(CCC(O)CO)c3)sc12` (stereo not drawn) [Example 222, 2-(1-(3,4-Dihydroxybutyl)-1H-pyrazol-4-yl)-N-(2-methyl-5-((2-(pyrrolidin-1-yl)ethyl)carbamoyl)pyridin-3-yl)pyrazolo[5,1-b]thiazole-7-carboxamide]: the pIC50 in experiment [1] was 9.15; in experiment [2], 7.78; at PDGFRβ (read-out: PDGFR Cellular IC50) it was 6.00.

Regarding `Cc1ncc(NC(=O)OCCN2CCCC2)cc1NC(=O)c1cnn2cc(-c3cnn(C)c3)sc12` [Example 246, 2-(pyrrolidin-1-yl)ethyl (6-methyl-5-(2-(1-methyl-1H-pyrazol-4-yl)pyrazolo[5,1-b]thiazole-7-carboxamido)pyridin-3-yl)carbamate], the pIC50 in experiment [1] is 8.85; in experiment [2] it was 7.19; on PDGFRβ (read-out: PDGFR Cellular IC50) it was 6.95.

Regarding `Cc1cc(C(=O)NCCCN2CCCC2(C)C)sc1NC(=O)c1cnn2cc(-c3cnn(C)c3)sc12` [Example 201, N-(5-((3-(2,2-dimethylpyrrolidin-1-yl)propyl)carbamoyl)-3-methylthiophen-2-yl)-2-(1-methyl-1H-pyrazol-4-yl)pyrazolo[5,1-b]thiazole-7-carboxamide], the pIC50 in experiment [1] was 7.23; in experiment [2] it was 5.61; at PDGFRβ (read-out: PDGFR Cellular IC50), 5.84.

Turning to `Cc1ncc(NC(=O)OC[C@@H]2CCCN2C)cc1NC(=O)c1cnn2cc(-c3cnn(C)c3)sc12` [Example 243, (S)-(1-methylpyrrolidin-2-yl)methyl (6-methyl-5-(2-(1-methyl-1H-pyrazol-4-yl)pyrazolo[5,1-b]thiazole-7-carboxamido)pyridin-3-yl)carbamate], the pIC50 in experiment [1] is 9.30; in experiment [2], 7.88; against PDGFRβ (PDGFR Cellular IC50), 7.69.

`Cc1ncc(C(=O)NCCNCCO)cc1NC(=O)c1cnn2cc(-c3cnn(C)c3)sc12` [Example 234, N-(5-((2-((2-hydroxyethyl)amino)ethyl)carbamoyl)-2-methylpyridin-3-yl)-2-(1-methyl-1H-pyrazol-4-yl)pyrazolo[5,1-b]thiazole-7-carboxamide]: the pIC50 in experiment [1] is 8.34; in experiment [2], 6.55; on PDGFRβ (read-out: PDGFR Cellular IC50), less than 5.52.

`Cc1ncc(C(=O)NCCN2CCCC2)cc1NC(=O)c1cnn2cc(-c3c(C)nn(C)c3C)sc12` [Example 223, N-(2-methyl-5-((2-(pyrrolidin-1-yl)ethyl)carbamoyl)pyridin-3-yl)-2-(1,3,5-trimethyl-1H-pyrazol-4-yl)pyrazolo[5,1-b]thiazole-7-carboxamide]: the pIC50 in experiment [1] is 9.22; in experiment [2], 8.24; on PDGFRβ (read-out: PDGFR Cellular IC50), 7.16.

As for `Cc1ncc(C(=O)NCCN2C[C@H]3CC[C@@H]2C3)cc1NC(=O)c1cnn2cc(-c3cn(C)nc3C)sc12` [Example 211, N-(5-((2-((1R,4S)-2-azabicyclo[2.2.1]heptan-2-yl)ethyl)carbamoyl)-2-methylpyridin-3-yl)-2-(1,3-dimethyl-1H-pyrazol-4-yl)pyrazolo[5,1-b]thiazole-7-carboxamide], the pIC50 is 9.52 in experiment [1], 8.62 in experiment [2] and 7.20 at PDGFRβ (read-out: PDGFR Cellular IC50).

In the case of `Cc1cc(C(=O)NCCN2CCc3ccccc3C2)sc1NC(=O)c1cnn2cc(-c3cnn(C)c3)sc12` [Example 204, N-(5-((2-(3,4-dihydroisoquinolin-2 (1H)-yl)ethyl)carbamoyl)-3-methylthiophen-2-yl)-2-(1-methyl-1H-pyrazol-4-yl)pyrazolo[5,1-b]thiazole-7-carboxamide], the pIC50 was 7.72 in experiment [1], 6.38 in experiment [2] and 6.34 on PDGFRβ (read-out: PDGFR Cellular IC50).

Consider `Cc1cc(C(=O)NCCN2CCCC2(C)C)sc1NC(=O)c1cnn2cc(-c3ccc(N)nc3)sc12` [Example 184, 2-(6-aminopyridin-3-yl)-N-(5-((2-(2,2-dimethylpyrrolidin-1-yl)ethyl)carbamoyl)-3-methylthiophen-2-yl)pyrazolo[5,1-b]thiazole-7-carboxamide], for which the pIC50 was 7.80 in experiment [1], 6.08 in experiment [2] and 5.79 at PDGFRβ (read-out: PDGFR Cellular IC50).

Take `Cc1cc(C(=O)NCCN2CC[C@H](O)C2)sc1NC(=O)c1cnn2cc(-c3cnn(C)c3)sc12` [Example 195, (S)—N-(5-((2-(3-hydroxypyrrolidin-1-yl)ethyl)carbamoyl)-3-methylthiophen-2-yl)-2-(1-methyl-1H-pyrazol-4-yl)pyrazolo[5,1-b]thiazole-7-carboxamide]: the pIC50 in experiment [1] was 6.81; in experiment [2], less than 5.52; on PDGFRβ (read-out: PDGFR Cellular IC50), less than 5.52.

In the case of `Cc1cc(C(=O)NCCN2CCCC2(C)C)sc1NC(=O)c1cnn2cc(-c3cnn(C)c3)sc12` [Example 182, N-(5-((2-(2,2-dimethylpyrrolidin-1-yl)ethyl)carbamoyl)-3-methylthiophen-2-yl)-2-(1-methyl-1H-pyrazol-4-yl)pyrazolo[5,1-b]thiazole-7-carboxamide], the pIC50 in experiment [1] was 7.62; in experiment [2], 5.70; at PDGFRβ (read-out: PDGFR Cellular IC50), 5.77.

On to `Cc1ncc(C(=O)NCCN2CCCC2(C)C)cc1NC(=O)c1cnn2cc(-c3c(C)n[nH]c3C)sc12` [Example 231, 2-(3,5-Dimethyl-1H-pyrazol-4-yl)-N-(5-((2-(2,2-dimethylpyrrolidin-1-yl)ethyl)carbamoyl)-2-methylpyridin-3-yl)pyrazolo[5,1-b]thiazole-7-carboxamide], for which the figures for the pIC50 (in experiment [1]; in experiment [2]; at PDGFRβ (read-out: PDGFR Cellular IC50)) were 9.40, 8.48 and 7.14, respectively.

As to `Cc1cc(C(=O)NCCN2CCCC2(C)C)sc1NC(=O)c1cnn2cc(-c3ccncc3)sc12` [Example 187, N-(5-((2-(2,2-dimethylpyrrolidin-1-yl)ethyl)carbamoyl)-3-methylthiophen-2-yl)-2-(pyridin-4-yl)pyrazolo[5,1-b]thiazole-7-carboxamide], the pIC50 in experiment [1] was 7.56; in experiment [2], 5.93; on PDGFRβ (read-out: PDGFR Cellular IC50) it was 5.99.

Turning to `COc1ncccc1-c1cn2ncc(C(=O)Nc3cc(NC(=O)OC[C@@H]4CCCN4C)cnc3C)c2s1` [Example 253, (S)-(1-methylpyrrolidin-2-yl)methyl (5-(2-(2-methoxypyridin-3-yl)pyrazolo[5,1-b]thiazole-7-carboxamido)-6-methylpyridin-3-yl)carbamate], the negative logarithm of the IC50 (pIC50) in experiment [1] is 9.70; in experiment [2] it was 8.74; on PDGFRβ (read-out: PDGFR Cellular IC50), 8.36.

For the molecule `CCc1cc(C(=O)NCCN2CCCC23CCC3)sc1NC(=O)c1cnn2cc(-c3cnn(C)c3)sc12` [Example 205, N-(5-((2-(5-azaspiro[3.4]octan-5-yl)ethyl)carbamoyl)-3-ethylthiophen-2-yl)-2-(1-methyl-1H-pyrazol-4-yl)pyrazolo[5,1-b]thiazole-7-carboxamide], the negative-log IC50 (pIC50) is 7.40 in experiment [1], 6.97 in experiment [2] and 6.25 at PDGFRβ (read-out: PDGFR Cellular IC50).

As for `Cc1cc(C(=O)NCCN(C)C2CCCC2)sc1NC(=O)c1cnn2cc(-c3cnn(C)c3)sc12` [Example 190, N-(5-((2-(cyclopentyl(methyl)amino)ethyl)carbamoyl)-3-methylthiophen-2-yl)-2-(1-methyl-1H-pyrazol-4-yl)pyrazolo[5,1-b]thiazole-7-carboxamide], the pIC50 in experiment [1] was 8.22; in experiment [2], 6.40; at PDGFRβ (PDGFR Cellular IC50), 6.83.

In the case of `Cn1cc(-c2cn3ncc(C(=O)Nc4sc(C(=O)NCCN5CCCC56CCC6)cc4C#N)c3s2)cn1` [Example 206, N-(5-((2-(5-azaspiro[3.4]octan-5-yl)ethyl)carbamoyl)-3-cyanothiophen-2-yl)-2-(1-methyl-1H-pyrazol-4-yl)pyrazolo[5,1-b]thiazole-7-carboxamide], the pIC50 is 5.45 in experiment [1], less than 5.52 in experiment [2] and less than 5.52 on PDGFRβ (read-out: PDGFR Cellular IC50).

Turning to `COc1ncccc1-c1cn2ncc(C(=O)Nc3cc(C(=O)NCCN4CCCC4(C)C)cnc3C)c2s1` [Example 226, N-(5-((2-(2,2-Dimethylpyrrolidin-1-yl)ethyl)carbamoyl)-2-methylpyridin-3-yl)-2-(2-methoxypyridin-3-yl)pyrazolo[5,1-b]thiazole-7-carboxamide], the pIC50 in experiment [1] was 9.70; in experiment [2], 8.89; on PDGFRβ (read-out: PDGFR Cellular IC50) it was 8.49.

As to `COc1ncccc1-c1cn2ncc(C(=O)Nc3cc(C(=O)NCCN4CCCC4C)cnc3C)c2s1` (stereo not drawn) [Example 228, 2-(2-Methoxypyridin-3-yl)-N-(2-methyl-5-((2-(2-methylpyrrolidin-1-yl)ethyl)carbamoyl)pyridin-3-yl)pyrazolo[5,1-b]thiazole-7-carboxamide], the pIC50 was 9.70 in experiment [1], 8.82 in experiment [2] and 8.25 at PDGFRβ (read-out: PDGFR Cellular IC50).

As for `Cc1ncc(C(=O)NCCN2CCCC2(C)C)cc1NC(=O)c1cnn2cc(-c3cn(C)nc3CO)sc12` [Example 224, N-(5-((2-(2,2-dimethylpyrrolidin-1-yl)ethyl)carbamoyl)-2-methylpyridin-3-yl)-2-(3-(hydroxymethyl)-1-methyl-1H-pyrazol-4-yl)pyrazolo[5,1-b]thiazole-7-carboxamide], the pIC50 was 8.85 in experiment [1], 7.95 in experiment [2] and 6.04 on PDGFRβ (read-out: PDGFR Cellular IC50).

For the origin of these results see patent US20240109917A1 (ACTELION PHARMACEUTICALS LTD, priority 2020, published 2024).
